Data: ChEMBL document CHEMBL4011582, “Human drug-induced liver injury severity is highly associated with dual inhibition of liver mitochondrial function and bile salt export pump” (Hepatology, 2014)

Columns and labels:
[1] = molecular target: T1, Bile salt export pump (Homo sapiens, UniProt O95342); assay: Inhibition of recombinant human BSEP expressed in baculovirus infected sf21 cell plasma membrane vesicles assessed as reduction in ATP-dependent [3H]-taurocholate uptake in to vesicles after 5 mins by microbeta filtration method; type: ADME
[2] = test system: Liver; type: ADME, mitochondria, Rattus norvegicus, Sprague-Dawley
[3] = clinical; details: human
[4] = Induction of mitochondrial dysfunction in liver mitochondria (unknown origin) assessed as inhibition of mitochondrial respiration
[5] = molecular target: T1, Bile salt export pump; assay: Inhibition of BSEP (unknown origin); type: ADME
[6] = molecular target: T1, Bile salt export pump; type: ADME; details: read-out: IC50
[7] = molecular target: T1, Bile salt export pump; assay: Inhibition of recombinant human BSEP expressed in baculovirus infected sf9 cell plasma membrane vesicles assessed as reduction in ATP-dependent [3H]-taurocholate uptake in to vesicles preincubated for 10 mins followed by ATP addition measured after 10 to 15 mins by TopCount method; type: ADME

T1 sequence (O95342 whole entry): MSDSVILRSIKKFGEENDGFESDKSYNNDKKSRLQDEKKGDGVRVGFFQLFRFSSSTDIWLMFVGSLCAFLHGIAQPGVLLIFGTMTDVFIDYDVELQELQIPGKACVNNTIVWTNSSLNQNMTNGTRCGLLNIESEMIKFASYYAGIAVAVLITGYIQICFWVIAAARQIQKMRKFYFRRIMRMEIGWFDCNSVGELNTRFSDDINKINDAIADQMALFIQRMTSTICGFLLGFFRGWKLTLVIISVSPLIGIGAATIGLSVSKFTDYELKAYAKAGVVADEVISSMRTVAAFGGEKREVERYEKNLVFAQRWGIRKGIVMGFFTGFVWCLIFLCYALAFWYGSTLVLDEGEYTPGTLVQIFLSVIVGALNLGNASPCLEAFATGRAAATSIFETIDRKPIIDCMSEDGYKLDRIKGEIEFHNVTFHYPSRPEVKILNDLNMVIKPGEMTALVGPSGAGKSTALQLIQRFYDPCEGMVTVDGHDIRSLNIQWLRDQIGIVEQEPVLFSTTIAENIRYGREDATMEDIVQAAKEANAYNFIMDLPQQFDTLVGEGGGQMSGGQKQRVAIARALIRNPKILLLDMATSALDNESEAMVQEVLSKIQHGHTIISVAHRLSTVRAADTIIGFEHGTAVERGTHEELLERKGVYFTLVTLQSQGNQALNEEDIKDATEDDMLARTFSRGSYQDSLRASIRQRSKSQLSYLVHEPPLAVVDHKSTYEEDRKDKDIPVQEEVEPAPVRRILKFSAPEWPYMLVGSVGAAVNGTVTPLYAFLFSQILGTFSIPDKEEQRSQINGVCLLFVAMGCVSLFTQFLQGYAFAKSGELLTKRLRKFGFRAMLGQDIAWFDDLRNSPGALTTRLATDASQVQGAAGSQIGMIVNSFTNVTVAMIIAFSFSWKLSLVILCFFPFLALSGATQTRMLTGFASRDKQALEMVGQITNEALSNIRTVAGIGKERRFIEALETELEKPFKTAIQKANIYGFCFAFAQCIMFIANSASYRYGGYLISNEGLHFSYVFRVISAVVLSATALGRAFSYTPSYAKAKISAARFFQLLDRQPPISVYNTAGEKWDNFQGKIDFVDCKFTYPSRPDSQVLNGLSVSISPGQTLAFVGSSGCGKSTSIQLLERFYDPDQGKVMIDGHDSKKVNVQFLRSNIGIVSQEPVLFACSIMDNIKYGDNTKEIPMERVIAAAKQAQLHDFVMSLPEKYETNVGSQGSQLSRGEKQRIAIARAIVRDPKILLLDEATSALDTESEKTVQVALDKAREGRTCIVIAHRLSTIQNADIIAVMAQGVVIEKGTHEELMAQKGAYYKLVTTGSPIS

Cmax [3] [µM] | IC50 [4] [nmol/mg] | IC50 [6] [µM] | SMILES | IC50 [1] [µM] | IC50 [2] | IC50 [5] [µM] | IC50 [7] [µM]
599 | – | – | C[N+](C)(C)CC(=O)O [BETAINE] | > 1000 | Non-Toxic | – | –
– | 45 | – | COCC(=O)NC/C=C/c1ccc2ncnc(Nc3ccc(Oc4ccc(C)nc4)c(C)c3)c2c1 [CP-724714] | – | – | – | –
– | – | – | CCOC(=O)[C@@]1(CCCCCCOc2ccc(Cl)cc2)CO1 [ETOMOXIR] | – | – | 11.8 | –
0.0003 | – | 9.3 | C[C@@H]1C[C@H]2[C@@H]3CCC4=CC(=O)C=C[C@]4(C)[C@@]3(Cl)[C@@H](O)C[C@]2(C)[C@@]1(O)C(=O)CCl [MOMETASONE] | – | Non-Toxic | – | –
8.5 | – | 18.7 | CO[C@H]1/C=C/O[C@@]2(C)Oc3c(C)c(O)c4c(O)c(c(/C=N/N5CCN(C)CC5)c(O)c4c3C2=O)NC(=O)/C(C)=C\C=C\[C@H](C)[C@H](O)[C@@H](C)[C@@H](O)[C@@H](C)[C@H](OC(C)=O)[C@@H]1C [RIFAMPIN] | – | Non-Toxic | – | –
2.78 | – | 9.5 | CO[C@H]1/C=C/O[C@@]2(C)Oc3c(C)c(O)c4c(O)c(cc(O)c4c3C2=O)NC(=O)/C(C)=C\C=C\[C@H](C)[C@H](O)[C@@H](C)[C@@H](O)[C@@H](C)[C@H](OC(C)=O)[C@@H]1C [RIFAMYCIN] | – | Non-Toxic | – | –
1.04 | – | – | CN(CCOc1ccc(CC2SC(=O)NC2=O)cc1)c1ccccn1 (stereo not drawn) [ROSIGLITAZONE] | – | – | – | 3.75
64.5 | – | – | CN[C@@H]1[C@H](O[C@H]2[C@H](O[C@H]3[C@H](O)[C@@H](O)[C@H](N=C(N)N)[C@@H](O)[C@@H]3N=C(N)N)O[C@@H](C)[C@]2(O)C=O)O[C@@H](CO)[C@H](O)[C@H]1O [STREPTOMYCIN] | > 1000 | Non-Toxic | – | –
44.2 | – | 11 | O=C1C(CC[S+]([O-])c2ccccc2)C(=O)N(c2ccccc2)N1c1ccccc1 (stereo not drawn) [SULFINPYRAZONE] | – | Non-Toxic | – | –
2.77 | – | 30 | CC[C@H]1OC(=O)[C@H](C)C(=O)[C@H](C)[C@@H](O[C@@H]2O[C@H](C)C[C@H](N(C)C)[C@H]2O)[C@](C)(OC)C[C@@H](C)C(=O)[C@H](C)[C@H]2N(CCCCn3cnc(-c4cccnc4)c3)C(=O)O[C@]12C [TELITHROMYCIN] | – | Non-Toxic | – | –
5.06 | – | 90 | O=c1n(CCCN2CCN(c3cccc(Cl)c3)CC2)nc2ccccn12 [TRAZODONE] | – | Non-Toxic | – | –
